{"source": "paper PMC5218480", "about": "(PLoS ONE, 2017)", "tested_on": "MV-4-11 cells", "assay": "Gene expression microarray analysis (Affymetrix PrimeView) and GSEA", "type": "cell-based, human", "design": "RFU PODN (11730768_x_at) / Fold change /veh PODN (11730768_x_at) / RFU LINC00158 (11744669_a_at) / Fold change /veh LINC00158 (11744669_a_at) / RFU DUSP10 (11751237_a_at) / Fold change /veh DUSP10 (11751237_a_at) / RFU ID3 (11757404_x_at) / Fold change /veh ID3 (11757404_x_at) / RFU PLEKHG5 (11737974_s_at) / Fold change /veh PLEKHG5 (11737974_s_at) / RFU LRRC4B (11730491_at) / Fold change /veh LRRC4B (11730491_at) / RFU GIMAP4 (11747438_a_at) / Fold change /veh GIMAP4 (11747438_a_at) / RFU KRT8 (11758183_x_at) / Fold change /veh KRT8 (11758183_x_at) / RFU CNN1 (11734310_a_at) / Fold change /veh CNN1 (11734310_a_at) / RFU VPS37D (11726825_at) / Fold change /veh VPS37D (11726825_at) / RFU C10orf10 (11716522_x_at) / Fold change /veh C10orf10 (11716522_x_at) / RFU KIR2DL2 /// KIR2DL4 /// KIR2DL5A /// KIR2DL5B /// KIR2DS1 /// KIR2DS2 /// KIR2DS3 /// KIR2DS4 /// KIR3DL3 /// KIR3DL3 /// KIR3DS1 (11738374_at) / Fold change /veh KIR2DL2 /// KIR2DL4 /// KIR2DL5A /// KIR2DL5B /// KIR2DS1 /// KIR2DS2 /// KIR2DS3 /// KIR2DS4 /// KIR3DL3 /// KIR3DL3 /// KIR3DS1 (11738374_at) / RFU C1QL1 (11718748_at) / Fold change /veh C1QL1 (11718748_at) / RFU TMPRSS4 (11747572_a_at) / Fold change /veh TMPRSS4 (11747572_a_at) / RFU HAMP (11756126_x_at) / Fold change /veh HAMP (11756126_x_at) / RFU RNFT2 (11725882_a_at) / Fold change /veh RNFT2 (11725882_a_at) / RFU NR4A2 (11747474_a_at) / Fold change /veh NR4A2 (11747474_a_at) / RFU ABCC12 (11746883_a_at) / Fold change /veh ABCC12 (11746883_a_at) / RFU TMEM136 (11760407_x_at) / Fold change /veh TMEM136 (11760407_x_at) / RFU CLDN22 /// WWC2 (11732394_at) / Fold change /veh CLDN22 /// WWC2 (11732394_at) / RFU HLA-DPB1 (11760878_x_at) / Fold change /veh HLA-DPB1 (11760878_x_at) / RFU SPINT1 (11716480_a_at) / Fold change /veh SPINT1 (11716480_a_at) / RFU GAP43 (11754022_s_at) / Fold change /veh GAP43 (11754022_s_at) / RFU A4GNT (11735810_at) / Fold change /veh A4GNT (11735810_at) / RFU PRB3 (11715151_x_at) / Fold change /veh PRB3 (11715151_x_at) / RFU TUBB4B (11761932_at) / Fold change /veh TUBB4B (11761932_at) / RFU CAPN14 (11732068_a_at) / Fold change /veh CAPN14 (11732068_a_at) / RFU TMCC2 (11721928_a_at) / Fold change /veh TMCC2 (11721928_a_at) / RFU IRGQ (11745062_a_at) / Fold change /veh IRGQ (11745062_a_at) / RFU FAM174B (11720279_a_at) / Fold change /veh FAM174B (11720279_a_at) / RFU TMPRSS4 (11748680_a_at) / Fold change /veh TMPRSS4 (11748680_a_at) / RFU FAM212B (11763350_a_at) / Fold change /veh FAM212B (11763350_a_at) / RFU PLEKHG5 (11743358_a_at) / Fold change /veh PLEKHG5 (11743358_a_at) / RFU ZSCAN30 (11745921_a_at) / Fold change /veh ZSCAN30 (11745921_a_at) / RFU CMKLR1 (11741424_a_at) / Fold change /veh CMKLR1 (11741424_a_at) / RFU LOC101060620 /// MAPK8IP1 (11723275_at) / Fold change /veh LOC101060620 /// MAPK8IP1 (11723275_at) / RFU SPTSSB (11747773_x_at) / Fold change /veh SPTSSB (11747773_x_at) / RFU PRSS12 (11739890_at) / Fold change /veh PRSS12 (11739890_at) / RFU BIN1 (11741810_x_at) / Fold change /veh BIN1 (11741810_x_at) / RFU WNT11 (11732464_a_at) / Fold change /veh WNT11 (11732464_a_at) / RFU C10orf10 (11716521_a_at) / Fold change /veh C10orf10 (11716521_a_at) / RFU C5orf56 (11738089_at) / Fold change /veh C5orf56 (11738089_at) / RFU CYB561 (11721691_x_at) / Fold change /veh CYB561 (11721691_x_at) / RFU ANKRD19P (11752326_a_at) / Fold change /veh ANKRD19P (11752326_a_at) / RFU OR2T12 /// OR2T33 /// OR2T8 (11738714_s_at) / Fold change /veh OR2T12 /// OR2T33 /// OR2T8 (11738714_s_at) / RFU VCAN (11748164_a_at) / Fold change /veh VCAN (11748164_a_at) / RFU JSRP1 (11732532_at) / Fold change /veh JSRP1 (11732532_at) / RFU KRTAP10-11 (11738290_x_at) / Fold change /veh KRTAP10-11 (11738290_x_at) / RFU MYO3A (11730013_a_at) / Fold change /veh MYO3A (11730013_a_at) / RFU EBF3 (11725865_a_at) / Fold change /veh EBF3 (11725865_a_at) / RFU CAMK2N1 (11719241_x_at) / Fold change /veh CAMK2N1 (11719241_x_at) / RFU C5orf56 (11738088_a_at) / Fold change /veh C5orf56 (11738088_a_at) / RFU OLFML3 (11715873_a_at) / Fold change /veh OLFML3 (11715873_a_at) / RFU LOC100653217 /// NTM (11731650_a_at) / Fold change /veh LOC100653217 /// NTM (11731650_a_at) / RFU MAPK11 (11762145_a_at) / Fold change /veh MAPK11 (11762145_a_at) / RFU FIZ1 (11724087_x_at) / Fold change /veh FIZ1 (11724087_x_at) / RFU OASL (11726364_x_at) / Fold change /veh OASL (11726364_x_at) / RFU SOX15 (11748057_x_at) / Fold change /veh SOX15 (11748057_x_at) / RFU CD79A (11719716_a_at) / Fold change /veh CD79A (11719716_a_at) / RFU HIST1H1D (11736915_at) / Fold change /veh HIST1H1D (11736915_at) / RFU CASKIN2 (11723855_a_at) / Fold change /veh CASKIN2 (11723855_a_at) / RFU LOC730098 (11760151_x_at) / Fold change /veh LOC730098 (11760151_x_at) / RFU OR4N2 (11742367_at) / Fold change /veh OR4N2 (11742367_at) / RFU PRRT2 (11749266_a_at) / Fold change /veh PRRT2 (11749266_a_at) / RFU SNX32 (11753110_a_at) / Fold change /veh SNX32 (11753110_a_at) / RFU CDHR5 (11726645_a_at) / Fold change /veh CDHR5 (11726645_a_at) / RFU RCAN1 (11760418_a_at) / Fold change /veh RCAN1 (11760418_a_at) / RFU FAM167A (11723789_a_at) / Fold change /veh FAM167A (11723789_a_at) / RFU FAM26E (11764081_at) / Fold change /veh FAM26E (11764081_at) / RFU ISYNA1 (11749810_s_at) / Fold change /veh ISYNA1 (11749810_s_at) / RFU ACY1 (11761880_at) / Fold change /veh ACY1 (11761880_at) / RFU 11764098_at / Fold change /veh 11764098_at / RFU SAMD14 (11745864_x_at) / Fold change /veh SAMD14 (11745864_x_at) / RFU NPB (11741838_a_at) / Fold change /veh NPB (11741838_a_at) / RFU TMPRSS6 (11731388_a_at) / Fold change /veh TMPRSS6 (11731388_a_at) / RFU KRTAP10-2 (11738614_at) / Fold change /veh KRTAP10-2 (11738614_at) / RFU ARHGAP8 /// PRR5-ARHGAP8 (11727945_x_at) / Fold change /veh ARHGAP8 /// PRR5-ARHGAP8 (11727945_x_at) / RFU KRTAP5-7 /// NADSYN1 (11734609_at) / Fold change /veh KRTAP5-7 /// NADSYN1 (11734609_at) / RFU RASL12 (11751679_a_at) / Fold change /veh RASL12 (11751679_a_at) / RFU CDKN2B (11736163_a_at) / Fold change /veh CDKN2B (11736163_a_at) / RFU PRF1 (11729649_at) / Fold change /veh PRF1 (11729649_at) / RFU, ZNF638 /// ZNF638-IT1 / Fold change vs veh, ZNF638 /// ZNF638-IT1 / RFU, PANK3 / Fold change vs veh, PANK3 / RFU, SH3YL1 / Fold change vs veh, SH3YL1 / RFU, ZEB2 / Fold change vs veh, ZEB2 / RFU, NRIP1 / Fold change vs veh, NRIP1 / RFU, PTTG1IP / Fold change vs veh, PTTG1IP / RFU, CAPN2 / Fold change vs veh, CAPN2 / RFU, MED14 / Fold change vs veh, MED14 / RFU, SNORA58 / Fold change vs veh, SNORA58 / RFU, C1orf63 / Fold change vs veh, C1orf63 / RFU, LRRFIP1 / Fold change vs veh, LRRFIP1 / RFU, NDUFAF7 / Fold change vs veh, NDUFAF7 / RFU, SLC12A2 / Fold change vs veh, SLC12A2 / RFU, IBTK / Fold change vs veh, IBTK / RFU, ESF1 / Fold change vs veh, ESF1 / Fold change vs veh, TMEM50B / RFU, TAOK1 / Fold change vs veh, TAOK1 / RFU, ACBD3 / Fold change vs veh, ACBD3 / RFU, TMA16 / Fold change vs veh, TMA16 / RFU, RWDD3 / Fold change vs veh, RWDD3 / RFU, BCAT1 / Fold change vs veh, BCAT1 / RFU, EDEM3 / Fold change vs veh, EDEM3 / RFU, TMEM33 / Fold change vs veh, TMEM33 / RFU, WDR75 / Fold change vs veh, WDR75 / RFU, AHCTF1 / Fold change vs veh, AHCTF1 / RFU, TFRC / Fold change vs veh, TFRC / RFU, ZDHHC17 / Fold change vs veh, ZDHHC17 / RFU, NOM1 / Fold change vs veh, NOM1 / RFU, ARL8B / Fold change vs veh, ARL8B / RFU, ZBTB11 / Fold change vs veh, ZBTB11 / RFU, TAMM41 / Fold change vs veh, TAMM41 / RFU, KIAA1704 /// LOC100996395 / Fold change vs veh, KIAA1704 /// LOC100996395 / RFU, ING1 / Fold change vs veh, ING1 / RFU, TRMT61B / Fold change vs veh, TRMT61B / RFU, FUBP3 / Fold change vs veh, FUBP3 / RFU, TP53 / Fold change vs veh, TP53 / RFU, TNKS2 / Fold change vs veh, TNKS2 / RFU, ZFP14 / Fold change vs veh, ZFP14 / RFU, ACTR2 / Fold change vs veh, ACTR2 / RFU, PPP3R1 / Fold change vs veh, PPP3R1 / RFU, PIK3R1 / Fold change vs veh, PIK3R1 / RFU, HNRNPA1 / Fold change vs veh, HNRNPA1 / RFU, RNF170 / Fold change vs veh, RNF170 / RFU, ZNF28 / Fold change vs veh, ZNF28 / RFU, RNGTT / Fold change vs veh, RNGTT / RFU, OGT / Fold change vs veh, OGT / RFU, BRD1 / Fold change vs veh, BRD1 / RFU, MARS / Fold change vs veh, MARS / RFU, ZNF655 / Fold change vs veh, ZNF655 / RFU, FAHD1 / Fold change vs veh, FAHD1 / RFU, BDP1 / Fold change vs veh, BDP1 / RFU, LRRCC1 / Fold change vs veh, LRRCC1 / RFU, ARID1A / Fold change vs veh, ARID1A / RFU, ZNF146 / Fold change vs veh, ZNF146 / RFU, ZNF330 / Fold change vs veh, ZNF330 / RFU, GPN3 / Fold change vs veh, GPN3 / RFU, C9orf123 / Fold change vs veh, C9orf123 / RFU, N4BP2L2 / Fold change vs veh, N4BP2L2 / RFU, ARFIP1 / Fold change vs veh, ARFIP1 / RFU, FAM179B / Fold change vs veh, FAM179B / RFU, BCL10 / Fold change vs veh, BCL10 / RFU, UHRF1BP1L / Fold change vs veh, UHRF1BP1L / RFU, BET1 / Fold change vs veh, BET1 / RFU, CNOT2 / Fold change vs veh, CNOT2 / RFU, ZNF268 / Fold change vs veh, ZNF268 / Fold change vs veh, ZNF507 / RFU, DGCR2 / Fold change vs veh, DGCR2 / RFU, WDSUB1 / Fold change vs veh, WDSUB1 / Fold change vs veh, HSP90B1 /// MIR3652 / RFU, ADSS / Fold change vs veh, ADSS / RFU, GK / Fold change vs veh, GK / RFU, ZNF148 / Fold change vs veh, ZNF148 / RFU, TAF9 / Fold change vs veh, TAF9 / RFU, SLC1A5 / Fold change vs veh, SLC1A5 / RFU, SLMO2 / Fold change vs veh, SLMO2 / RFU, ABCC4 / Fold change vs veh, ABCC4 / RFU, LOC101060439 /// RAP1B / Fold change vs veh, LOC101060439 /// RAP1B / RFU, RFX7 / Fold change vs veh, RFX7 / RFU, GTPBP10 / Fold change vs veh, GTPBP10 / RFU, CNEP1R1 / Fold change vs veh, CNEP1R1 / RFU, BIVM-ERCC5 /// ERCC5 / Fold change vs veh, BIVM-ERCC5 /// ERCC5 / RFU, ILF3 / Fold change vs veh, ILF3 / RFU 11762660_at / Fold change /veh 11762660_at / RFU VCAN (11757783_s_at) / Fold change /veh VCAN (11757783_s_at) / RFU DDX43 (11728927_at) / Fold change /veh DDX43 (11728927_at) / RFU KRT8 (11758188_x_at) / Fold change /veh KRT8 (11758188_x_at) / RFU NKD1 (11759106_at) / Fold change /veh NKD1 (11759106_at) / RFU SRD5A1 (11742802_a_at) / Fold change /veh SRD5A1 (11742802_a_at) / RFU TPSAB1 /// TPSB2 (11721975_s_at) / Fold change /veh TPSAB1 /// TPSB2 (11721975_s_at) / RFU GSTM3 (11746129_a_at) / Fold change /veh GSTM3 (11746129_a_at) / RFU IL23R (11737362_x_at) / Fold change /veh IL23R (11737362_x_at) / RFU TMEM51 (11727254_a_at) / Fold change /veh TMEM51 (11727254_a_at) / RFU PIWIL2 (11732686_x_at) / Fold change /veh PIWIL2 (11732686_x_at) / RFU ORM1 (11744905_x_at) / Fold change /veh ORM1 (11744905_x_at) / RFU CCDC152 (11743942_at) / Fold change /veh CCDC152 (11743942_at) / RFU ECM1 (11717891_a_at) / Fold change /veh ECM1 (11717891_a_at) / RFU IL23R (11748794_a_at) / Fold change /veh IL23R (11748794_a_at) / RFU TNFAIP8L3 (11732012_x_at) / Fold change /veh TNFAIP8L3 (11732012_x_at) / RFU MBOAT4 (11741988_at) / Fold change /veh MBOAT4 (11741988_at) / RFU 11764193_at / Fold change /veh 11764193_at / RFU TMEM53 (11763286_at) / Fold change /veh TMEM53 (11763286_at) / RFU MAGEB2 (11727129_at) / Fold change /veh MAGEB2 (11727129_at) / RFU TMEM200A (11744735_a_at) / Fold change /veh TMEM200A (11744735_a_at) / RFU CCDC152 (11751479_a_at) / Fold change /veh CCDC152 (11751479_a_at) / RFU FAM211A (11726209_a_at) / Fold change /veh FAM211A (11726209_a_at) / RFU RGS16 (11746705_a_at) / Fold change /veh RGS16 (11746705_a_at) / RFU VCAN (11755009_s_at) / Fold change /veh VCAN (11755009_s_at) / RFU RHOB (11743442_s_at) / Fold change /veh RHOB (11743442_s_at) / RFU RGS16 (11720943_a_at) / Fold change /veh RGS16 (11720943_a_at) / RFU RGS16 (11720944_at) / Fold change /veh RGS16 (11720944_at) / RFU, VPS4B / Fold change vs veh, VPS4B / RFU, CREB1 / Fold change vs veh, CREB1 / RFU, DNAJC13 / Fold change vs veh, DNAJC13 / RFU, GNAQ / Fold change vs veh, GNAQ / RFU, CDK5R1 / Fold change vs veh, CDK5R1 / RFU, ZRANB3 / Fold change vs veh, ZRANB3 / RFU, CUL4A / Fold change vs veh, CUL4A / RFU, CCNY / Fold change vs veh, CCNY / RFU, UFL1 / Fold change vs veh, UFL1 / RFU, COG3 / Fold change vs veh, COG3 / RFU, DIAPH2 / Fold change vs veh, DIAPH2 / RFU, SKA2 / Fold change vs veh, SKA2 / RFU, AFF3 / Fold change vs veh, AFF3 / RFU, LMF1 / Fold change vs veh, LMF1 / RFU, IPO11 / Fold change vs veh, IPO11 / RFU, DFFB / Fold change vs veh, DFFB / RFU, FOXP1 / Fold change vs veh, FOXP1 / RFU, CARD8 / Fold change vs veh, CARD8 / RFU, STRN3 / Fold change vs veh, STRN3 / RFU, ADK / Fold change vs veh, ADK / RFU, RASSF2 / Fold change vs veh, RASSF2 / RFU, WIPF1 / Fold change vs veh, WIPF1 / RFU, LARP1B / Fold change vs veh, LARP1B / RFU, RASA1 / Fold change vs veh, RASA1 / RFU, RB1 / Fold change vs veh, RB1 / RFU, PPFIA1 / Fold change vs veh, PPFIA1 / RFU, MAT2A / Fold change vs veh, MAT2A / RFU, CCT5 / Fold change vs veh, CCT5 / RFU, WDR92 / Fold change vs veh, WDR92 / RFU, CUX1 / Fold change vs veh, CUX1 / RFU, TTC7A / Fold change vs veh, TTC7A / RFU, TMEM135 / Fold change vs veh, TMEM135 / RFU, DEPTOR / Fold change vs veh, DEPTOR / RFU, CPM / Fold change vs veh, CPM / RFU, DNAJB6 / Fold change vs veh, DNAJB6 / RFU, CACNA2D3 / Fold change vs veh, CACNA2D3 / RFU, DTX4 / Fold change vs veh, DTX4 / RFU, TFCP2 / Fold change vs veh, TFCP2 / RFU, GMCL1 /// GMCL1P1 / Fold change vs veh, GMCL1 /// GMCL1P1 / RFU, AEBP2 / Fold change vs veh, AEBP2 / RFU, SNHG1 /// SNORD22 /// SNORD25 /// SNORD26 /// SNORD27 /// SNORD28 /// SNORD29 /// SNORD31 / Fold change vs veh, SNHG1 /// SNORD22 /// SNORD25 /// SNORD26 /// SNORD27 /// SNORD28 /// SNORD29 /// SNORD31 / Fold change (Aza/veh), C12orf56 (ProbeSet 11735607_a_at) / Fold change (ACY-1035/veh), C12orf56 (ProbeSet 11735607_a_at) / Fold change (Aza/veh), FGFR1OP (ProbeSet 11751329_s_at) / Fold change (ACY-1035/veh), FGFR1OP (ProbeSet 11751329_s_at) / Fold change (Aza/veh), VPS36 (ProbeSet 11739960_a_at) / Fold change (ACY-1035/veh), VPS36 (ProbeSet 11739960_a_at) / RFU SYPL1 (11715823_x_at) / Fold change /veh SYPL1 (11715823_x_at) / RFU IGFBP7 (11715501_s_at) / Fold change /veh IGFBP7 (11715501_s_at) / RFU REEP3 (11722064_at) / Fold change /veh REEP3 (11722064_at) / RFU IGLL1 (11728026_x_at) / Fold change /veh IGLL1 (11728026_x_at): dose or concentration left out as unconfirmed", "conditions": "ProbeSet 11741123_x_at; LIST D", "data": [{"smiles": "Nc1ncn([C@@H]2O[C@H](CO)[C@@H](O)[C@H]2O)c(=O)n1", "note": "[azacitidine]", "values": [{"measurement": "Fold change vs veh, ADK", "value": 0.72}]}]}
